Source: patent US20160101148A1, “TREATMENT AND PREVENTION OF BACTERIAL SKIN INFECTIONS USING ORITAVANCIN” (priority 2013, published 2016)

Legend:
[1] = tested on: ABSSSI suspected or proven to be due to a gram-positive pathogen, including MRSA; assay: SOLO I Phase 3 trial, efficacy: single dose IV oritavancin versus IV vancomycin for 7 to 10 days; type: in vivo, human; conditions: for Difference in lesion size reduction ≧20% rate (oritavancin minus vancomycin) / Difference in primary efficacy endpoint rate (oritavancin minus vancomycin): ECE; for Lesion Size Reduction ≧20% From Baseline / Primary efficacy endpoint response rate (cessation of spread, absence of fever, no rescue antibiotics): ECE 48 to 72 hours; for Difference in investigator-assessed clinical cure rate (oritavancin minus vancomycin) / Difference in sustained clinical cure rate (oritavancin minus vancomycin): PTE; for Investigator-Assessed Clinical Cure / Sustained Clinical Cure: PTE 7 to 14 days after EOT
Procedure: The primary efficacy endpoint comprised: 1) cessation of spreading or reduction in the size of the baseline lesion, 2) absence of fever, and 3) no rescue antibiotic, at 48 to 72 hours, for the modified intent to treat population.
The study design was consistent with current guidelines from FDA (U.S. Food and Drug Administration. Guidance for Industry Acute Bacterial Skin and Skin Structure Infections: Developing Drugs for Treatment (DRAFT GUIDANCE). Available via Internet at the URL containing: fda.gov/downloads/Drugs/GuidanceComplianceRegulatoryInformation/Guidances/ucm071185.p df) and EMA (European Medicines Agency Committee for Medicinal Products for Human Use. Addendum to the note for guidance on evaluation of medicinal products indicated for treatment of bacterial infections (CHMP/EWP/558/95 REV 2) to address indication-specific clinical data (draft). 2012. Available via Internet at the URL containing: ema.europa.eu/docs/en_GB/document_library/Scientific_guideline/2012/07/WC500129443.pdf) and Foundation for National Institutes of Health guidance was considered for analyses (Talbot G H etl. Clin Infect Dis. 2012. 55(8):1114-1121). The protocol was approved by institutional review boards/ethics committees and all patients provided written informed consent. The study was conducted from January 2011 through October 2012 at 46 study centers in Mexico, Spain, Germany, Romania, Russia, Ukraine, Israel, India, and the United States. […] Aztreonam and metronidazole were permitted for gram-negative and anaerobic cover, respectively.
Clinical evaluations were performed at the following time points: Early Clinical Evaluation (ECE) at 48 to 72 hours after the initiation of the study drug infusion, End of Therapy (EOT) at Day 7 to Day 10 or the day the patient stopped study drug or changed to non-study drug therapy for primary ABSSSI, Day 10 Evaluation defined as 10 days after the initiation of the study drug infusion, Post Therapy Evaluation (PTE) at 7 to 14 days after the EOT visit, and Safety Follow-up at 60 days (+7 days) after the initiation of the study drug infusion. Safety data was reviewed by a data monitoring committee.
Eligible patients were to be at least 18 years of age with diagnosis of ABSSSI that was suspected or proven to be due to a gram-positive pathogen and which required at least 7 days of IV therapy. The diagnosis of ABSSSI was defined as wound infections (either traumatic or surgical in origin), cellulitis/erysipelas or major cutaneous abscess with surrounding erythema, edema, and/or induration of at least 75 cm^2. The onset of wound infections or cellulitis/erysipelas must have occurred within 7 days prior to randomization. Patients also had to present with signs and symptoms of systemic inflammation. Patients were not eligible to participate if they received systemic or topical antibacterial therapy with gram-positive activity within the preceding 14 days.
The primary efficacy endpoint was a composite outcome of 1) cessation of spreading or reduction in the size of the baseline lesion, 2) absence of fever, and 3) no rescue antibiotic medication at the ECE visit, for the mITT population.
The secondary efficacy outcomes were as follows: 1) Lesion area decrease by ≧20% from Baseline at ECE, 2) Investigator-Assessed Clinical Response at PTE, 3) Sustained Clinical Response at PTE.
The analyses were performed for patients who had lesion area assessments at baseline and ECE using the mITT and CE populations.
If a patient had clinical failure assessed beyond the PTE visit window, the patient was considered as a clinical failure. If a patient had clinical success assessed beyond the PTE visit window, a) and if the patient had clinical failure before the PTE visit, the patient was considered a clinical failure at PTE or b) if the patient had clinical success also before the PTE visit, the patient was considered a clinical success at PTE.

[2] = tested on: ABSSSI caused by susceptible gram-positive bacteria, including MRSA; assay: SOLO II Phase 3 trial, efficacy; type: in vivo, human
Source text: Complete results were obtained from a phase 3 clinical trial program of oritavancin (SOLO), which investigated the drug for the treatment of acute bacterial skin and skin structure infections (ABSSSI) caused by susceptible gram-positive bacteria, including methicillin-resistant Staphylococcus aureus (MRSA). SOLO I and SOLO II clinical trials were identical multicenter, double-blind, randomized clinical trials.
In SOLO II, all protocol-specified primary and secondary efficacy endpoints were met. […] The efficacy was similar in the overall population and in those patients with microbiologically confirmed MRSA infections.

[3] = confirmed MRSA, Microbiological ITT, ECE
[4] = confirmed MRSA, Microbiological ITT, ECE, oritavancin n = 100, vancomycin n = 101
[5] = mITT, ECE, oritavancin n = 503, vancomycin n = 502
[6] = mITT, ECE, oritavancin vs vancomycin

Q: `CN[C@H](CC(C)C)C(=O)N[C@H]1C(=O)N[C@@H](CC(N)=O)C(=O)N[C@H]2C(=O)N[C@H]3C(=O)N[C@H](C(=O)N[C@H](C(=O)O)c4cc(O)cc(O)c4-c4cc3ccc4O)[C@H](O[C@H]3C[C@](C)(N)[C@@H](O)[C@H](C)O3)c3ccc(c(Cl)c3)Oc3cc2cc(c3O[C@@H]2O[C@H](CO)[C@@H](O)[C@H](O)[C@H]2O[C@H]2C[C@](C)(NCc3ccc(-c4ccc(Cl)cc4)cc3)[C@@H](O)[C@H](C)O2)Oc2ccc(cc2Cl)[C@H]1O` [Oritavancin, N^DISACC-(4-(4-chlorophenyl)benzyl)A82846B] was tested. Which “Efficacy versus vancomycin for ECE and PTE endpoints” value ([1]; 10% non-inferiority margin) did it give?
A: Its value is “non-inferior to vancomycin”.

Q: And the “Patients both early treatment responders (lesion size reduction of ≧20% at ECE) and clinical successes at PTE” value ([1]; CE population)?
A: The value was “more than 84%”.

Q: What about the “Difference in lesion size reduction ≧20% rate (oritavancin minus vancomycin)” value ([1]; CE) of the same molecule?
A: Its value is 1.9%.

Q: What about the “Difference in primary efficacy endpoint rate (oritavancin minus vancomycin)” value ([1]; CE) of the same molecule?
A: Its value is 1.2%.

Q: And the “Lesion Size Reduction ≧20% From Baseline” value ([1]; CE)?
A: Its value is 90.6%.

Q: What about the “Primary efficacy endpoint response rate (cessation of spread, absence of fever, no rescue antibiotics)” value ([1]; CE) of the same molecule?
A: The value was 87.3%.

Q: And the “Difference in investigator-assessed clinical cure rate (oritavancin minus vancomycin)” value ([1]; CE)?
A: Its value is −1.3%.

Q: And the “Difference in sustained clinical cure rate (oritavancin minus vancomycin)” value ([1]; CE)?
A: Its value is −3.9%.

Q: What about the “Investigator-Assessed Clinical Cure” value ([1]; CE) of the same molecule?
A: Its value is 91.9%.

Q: What about the “Sustained Clinical Cure” value ([1]; CE) of the same molecule?
A: Its value is 79.4%.

Q: What about the “Difference in lesion size reduction ≧20% rate (oritavancin minus vancomycin)” value ([1]; MRSA MicroE) of the same molecule?
A: Its value is 7.5%.

Q: And the “Difference in primary efficacy endpoint rate (oritavancin minus vancomycin)” value ([1]; MRSA MicroE)?
A: The value was 1.8%.

Q: And the “Lesion Size Reduction ≧20% From Baseline” value ([1]; MRSA MicroE)?
A: The value was 96.5%.

Q: What about the “Primary efficacy endpoint response rate (cessation of spread, absence of fever, no rescue antibiotics)” value ([1]; MRSA MicroE) of the same molecule?
A: The value was 88.4%.

Q: And the “Difference in investigator-assessed clinical cure rate (oritavancin minus vancomycin)” value ([1]; MRSA MicroE)?
A: Its value is −2.2%.

Q: What about the “Difference in sustained clinical cure rate (oritavancin minus vancomycin)” value ([1]; MRSA MicroE) of the same molecule?
A: The value was −2.8%.

Q: What about the “Investigator-Assessed Clinical Cure” value ([1]; MRSA MicroE) of the same molecule?
A: Its value is 95.3%.

Q: What about the “Sustained Clinical Cure” value ([1]; MRSA MicroE) of the same molecule?
A: Its value is 81.4%.

Q: What about the “Difference in lesion size reduction ≧20% rate (oritavancin minus vancomycin)” value ([1]; MRSA MicroITT) of the same molecule?
A: The value was 6.4%.

Q: And the “Difference in primary efficacy endpoint rate (oritavancin minus vancomycin)” value ([1]; MRSA MicroITT)?
A: The value was 0.8%.

Q: What about the “Lesion Size Reduction ≧20% From Baseline” value ([1]; MRSA MicroITT) of the same molecule?
A: Its value is 90.4%.

Q: And the “Primary efficacy endpoint response rate (cessation of spread, absence of fever, no rescue antibiotics)” value ([1]; MRSA MicroITT)?
A: The value was 80.8%.

Q: What about the “Lesion Size Reduction ≧20% From Baseline” value ([1]; MRSA MicroITT, listed as oritavancin) of the same molecule?
A: Its value is 90.4%.

Q: What about the “Difference in investigator-assessed clinical cure rate (oritavancin minus vancomycin)” value ([1]; MRSA MicroITT) of the same molecule?
A: The value was −0.3%.

Q: What about the “Difference in sustained clinical cure rate (oritavancin minus vancomycin)” value ([1]; MRSA MicroITT) of the same molecule?
A: The value was −0.7%.

Q: And the “Investigator-Assessed Clinical Cure” value ([1]; MRSA MicroITT)?
A: The value was 82.7%.

Q: And the “Sustained Clinical Cure” value ([1]; MRSA MicroITT)?
A: Its value is 68.3%.

Q: And the “Difference in lesion size reduction ≧20% rate (oritavancin minus vancomycin)” value ([1]; mITT)?
A: Its value is 4.1%.

Q: What about the “Difference in primary efficacy endpoint rate (oritavancin minus vancomycin)” value ([1]; mITT) of the same molecule?
A: Its value is 3.4%.

Q: And the “Lesion Size Reduction ≧20% From Baseline” value ([1]; mITT)?
A: The value was 86.9%.

Q: What about the “Primary efficacy endpoint response rate (cessation of spread, absence of fever, no rescue antibiotics)” value ([1]; mITT) of the same molecule?
A: The value was 82.3%.

Q: And the “Lesion Size Reduction ≧20% From Baseline” value ([1]; mITT, listed as oritavancin)?
A: The value was 86.9%.

Q: And the “Primary efficacy endpoint response rate (cessation of spread, absence of fever, no rescue antibiotics)” value ([1]; mITT, listed as oritavancin)?
A: The value was 82.3%.

Q: What about the “Difference in investigator-assessed clinical cure rate (oritavancin minus vancomycin)” value ([1]; mITT) of the same molecule?
A: Its value is −0.4%.

Q: What about the “Difference in sustained clinical cure rate (oritavancin minus vancomycin)” value ([1]; mITT) of the same molecule?
A: Its value is −2.6%.

Q: What about the “Investigator-Assessed Clinical Cure” value ([1]; mITT) of the same molecule?
A: Its value is 79.6%.

Q: What about the “Sustained Clinical Cure” value ([1]; mITT) of the same molecule?
A: Its value is 67.2%.

Q: What about the “Investigator-Assessed Clinical Cure” value ([1]; mITT, listed as oritavancin) of the same molecule?
A: Its value is 79.6%.

Q: And the “Sustained Clinical Cure” value ([1]; mITT, listed as oritavancin)?
A: Its value is 67.2%.

Q: And the “Efficacy versus vancomycin for ECE and PTE endpoints” value [2]?
A: The value was “non-inferior to vancomycin”.

Q: And the “FDA primary endpoint: Cessation of spread, absence of fever, no rescue antibiotics” value [2, 3]?
A: Its value is 82.0%.

Q: What about the “≧20% reduction of lesion area” value [2, 3] of the same molecule?
A: Its value is 96.0%.

Q: What about the “FDA primary endpoint: Cessation of spread, absence of fever, no rescue antibiotics, number of patients” value [2, 4] of the same molecule?
A: Its value is 82.

Q: What about the “≧20% reduction of lesion area, number of patients” value [2, 4] of the same molecule?
A: Its value is 96.

Q: What about the “EMA primary endpoint: Investigator-assessed clinical cure” value ([2]; confirmed MRSA, Microbiological ITT, PTE) of the same molecule?
A: Its value is 84.0%.

Q: What about the “EMA primary endpoint: Investigator-assessed clinical cure, number of patients” value ([2]; confirmed MRSA, Microbiological ITT, PTE, oritavancin n = 100, vancomycin n = 101) of the same molecule?
A: The value was 84.

Q: And the “FDA primary endpoint: Cessation of spread, absence of fever, no rescue antibiotics” value ([2]; mITT, ECE)?
A: The value was 80.1%.

Q: And the “≧20% reduction of lesion area” value ([2]; mITT, ECE)?
A: Its value is 85.9%.

Q: What about the “FDA primary endpoint: Cessation of spread, absence of fever, no rescue antibiotics, number of patients” value [2, 5] of the same molecule?
A: Its value is 403.

Q: And the “≧20% reduction of lesion area, number of patients” value [2, 5]?
A: Its value is 432.

Q: What about the “% Difference (95% CI), FDA primary endpoint” value [2, 6] of the same molecule?
A: Its value is −2.7 (−7.5, 2.0) %.

Q: What about the “% Difference (95% CI), ≧20% reduction of lesion area” value [2, 6] of the same molecule?
A: Its value is 0.6 (−3.7, 5.0) %.

Q: And the “EMA primary endpoint: Investigator-assessed clinical cure” value ([2]; mITT, PTE)?
A: Its value is 82.7%.

Q: And the “EMA primary endpoint: Investigator-assessed clinical cure, number of patients” value ([2]; mITT, PTE, oritavancin n = 503, vancomycin n = 502)?
A: The value was 416.

Q: And the “% Difference (95% CI), investigator-assessed clinical cure” value ([2]; mITT, PTE, oritavancin vs vancomycin)?
A: The value was 2.2 (−2.6, 7.0) %.
